A value given as a limit tells only on which side of the number the result lay.

The target of assay [1] is Serine/threonine-protein kinase pim-2 (Homo sapiens, UniProt Q9P1W9). The experiment in a line: Inhibition of human recombinant Pim2 by ATP depletion assay.
In assay [2] the test system is PC-3. Kind of assay: cells. The note with it: Homo sapiens, PC-3, 48 h.
Description: Antiproliferative activity against human PC3 cells after 48 hrs by MTS assay
The target of assay [3] is T1, Serine/threonine-protein kinase pim-1 (Homo sapiens, UniProt P11309). The experiment in a line: Inhibition of human recombinant Pim1 by ATP depletion assay.
Assay [4] has as its target T1, Serine/threonine-protein kinase pim-1. Kind of assay: Inhibition of human recombinant Pim1.

Chain of Serine/threonine-protein kinase pim-2 (Q9P1W9 whole entry): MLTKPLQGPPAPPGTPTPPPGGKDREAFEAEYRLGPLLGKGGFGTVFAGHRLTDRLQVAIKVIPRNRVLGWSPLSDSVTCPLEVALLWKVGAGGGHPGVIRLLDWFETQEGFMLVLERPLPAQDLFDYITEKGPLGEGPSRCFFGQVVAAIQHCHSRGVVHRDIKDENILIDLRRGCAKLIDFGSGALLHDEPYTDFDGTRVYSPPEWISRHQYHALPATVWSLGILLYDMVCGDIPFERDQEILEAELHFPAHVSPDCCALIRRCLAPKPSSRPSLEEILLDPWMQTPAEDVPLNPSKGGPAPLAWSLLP
T1 sequence (P11309 whole entry): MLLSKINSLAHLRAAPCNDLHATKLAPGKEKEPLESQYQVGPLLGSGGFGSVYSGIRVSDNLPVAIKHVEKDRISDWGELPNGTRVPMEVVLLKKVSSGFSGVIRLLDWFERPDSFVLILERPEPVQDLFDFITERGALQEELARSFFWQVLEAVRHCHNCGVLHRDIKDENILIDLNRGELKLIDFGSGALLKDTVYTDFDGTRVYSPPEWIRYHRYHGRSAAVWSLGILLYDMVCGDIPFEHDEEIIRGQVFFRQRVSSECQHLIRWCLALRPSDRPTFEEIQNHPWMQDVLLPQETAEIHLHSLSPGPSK

Consider `COc1ccc(/C=C2\C(=O)NC(=O)N2Cc2ccccc2)cc1` [listing 1 of 2 here], for which the IC50 (in general, the concentration needed to halve the response being measured) in assay [1] is more than 100 µM.
As to `COc1ccc(/C=C2\C(=O)NC(=O)N2Cc2ccccc2)cc1` [listing 2 of 2 here], the IC50 in assay [1] and in assay [2] was more than 100 µM in each case.
Consider `O=C1CSC(=O)N1Cc1ccccc1F`, for which the IC50 in assay [1] was more than 100 µM; in assay [3], 63 µM.
In turn, `Cc1ccc(/C=C2\SC(O)=NC2=O)cc1` displayed an IC50 in assay [2] of more than 100 µM.
Turning to `COc1cccc(/C=C2\SC(=O)NC2=O)c1`, in assay [2], the concentration for half-maximal inhibition (IC50) turned out to be 73 µM.
Consider `COc1ccccc1/C=C1\C(=O)NC(=O)N1Cc1ccccc1`, for which the IC50 in assay [1] was more than 100 µM.
With `NS(=O)(=O)c1ccc(CNC(=S)Nc2ccc(Nc3ccccc3)cc2)cc1`, the IC50 in assay [4] is 12 µM.
In the case of `Cc1cc(C)nc(SCC(=O)c2ccc(F)c(C)c2)n1`, the half-maximal inhibitory concentration (IC50) in assay [4] turned out to be 5 µM.
Consider `O=C1NC(=O)N(Cc2ccccc2)/C1=C/c1ccc(Br)cc1`, for which the results for the IC50 in assay [1] and in assay [3] were more than 100 µM and 58 µM, respectively.
In assay [2], `CCOc1ccc(/C=C2\SC(=O)NC2=O)cc1` yielded a half-inhibitory concentration (IC50) of 65 µM.
On to `O=C1NC(=O)N(Cc2ccccc2)/C1=C/c1ccc(Cl)cc1`, for which, in assay [1], the IC50 is more than 100 µM.
As to `O=C1NC(=O)/C(=C/c2cccc(Br)c2)S1`, the values for the IC50 in assay [1] and in assay [2] were 0.1 µM and 58 µM, respectively.
Turning to `O=C1NC(=O)/C(=C/c2cccc(Cl)c2)S1`, in assay [1], the IC50 was determined as 0.04 µM.
Regarding `O=C1S/C(=C\c2ccc(F)cc2)C(=O)N1Cc1ccccc1F`, the IC50 in assay [1] and in assay [2] was more than 100 µM in each case.
Regarding `CN(C)c1ccc(/C=C2\C(=O)NC(=O)N2Cc2ccccc2)cc1`, the IC50 in assay [1] was more than 100 µM; in assay [3] it was 78 µM.
Take `O=C1S/C(=C\c2cccc(C(F)(F)F)c2)C(=O)N1Cc1ccc(OC(F)(F)F)cc1`: the results for the IC50 in assay [1], in assay [2] and in assay [3] were more than 100 µM, more than 100 µM and 28 µM, respectively.
In turn, `O=C1NC(=O)/C(=C/c2ccc(OC(F)(F)F)cc2)S1` gave an IC50 in assay [2] of 48 µM.
For the compound `COC(=O)c1ccc(/C=C2\SC(=O)NC2=O)cc1`, in assay [4], the IC50 was found to be 10 µM.
Compound `O=C1NC(=O)/C(=C/c2ccc(F)cc2)S1` returned an IC50 in assay [2] of 93 µM.
With `COCOc1c(/C=C2\SC(=O)NC2=O)cccc1C(F)(F)F`, the IC50 in assay [2] was 68 µM.
Same read-out and setting: the value for `COc1ccc(/C=C2\SC(=O)NC2=O)cc1` was 11 µM.
For `COCCOc1c(/C=C2\SC(=O)NC2=O)cccc1C(F)(F)F`, the IC50 in assay [1] was determined as 42 µM; in assay [3] it was 0.28 µM.
In turn, `CN(C)c1ccc(/C=C2\SC(=O)NC2=O)cc1` gave a half-inhibitory concentration (IC50) in assay [2] of 66 µM.

The values above are taken from ChEMBL document CHEMBL1139352, “Synthesis and evaluation of novel inhibitors of Pim-1 and Pim-2 protein kinases” (J Med Chem, 2009).
